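The compound was tested at five concentrations on cells cultured in 96-well plates, with a 48-hour exposure period. Abbreviation: GI50, concentration required for 50% inhibition of growth.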 Calls of active or inactive are those of the source. Rule as the data show it: active = GI50 up to about 1.1 µM and inactive = higher.
How the values were obtained:
Assay in all cases: NCI tumour cell line growth inhibition, 48 h
M19-MEL = system: M19-MEL
HL-60 = system: HL-60
SK-MEL-2 = system: SK-MEL-2
COLO 205 = system: COLO 205
SR = system: SR
HCT-15 = system: HCT-15
KM12 = system: KM12
SNB-78 = system: SNB-78
Malme-3M = system: Malme-3M
NCI-H23 = system: NCI-H23
M14 = system: M14
DLD-1 = system: DLD-1
EKVX = system: EKVX
HT-29 = system: HT-29
SF-295 = system: SF-295
KM-20L2 = system: KM-20L2
U-251 = system: U-251
RPMI-8226 = system: RPMI-8226
DMS-114 = system: DMS-114
OVCAR-8 = system: OVCAR-8
SK-MEL-5 = system: SK-MEL-5
SF-539 = system: SF-539
786-0 = system: 786-0
SF-268 = system: SF-268
RXF 393 = system: RXF 393
HOP-92 = system: HOP-92
HCT-116 = system: HCT-116
OVCAR-3 = system: OVCAR-3
SK-OV-3 = system: SK-OV-3
HOP-62 = system: HOP-62
K562 = system: K562
CAKI-1 = system: CAKI-1
HCC 2998 = system: HCC 2998
TK-10 = system: TK-10
A549 = system: A549
SK-MEL-28 = system: SK-MEL-28
IGROV-1 = system: IGROV-1
MOLT-4 = system: MOLT-4
UO-31 = system: UO-31
OVCAR-4 = system: OVCAR-4
OVCAR-5 = system: OVCAR-5
UACC-62 = system: UACC-62
HOP-18 = system: HOP-18
SNB-75 = system: SNB-75
SNB-19 = system: SNB-19
ACHN = system: ACHN
SW-620 = system: SW-620
LOX IMVI = system: LOX IMVI
NCI-H522 = system: NCI-H522
DMS-273 = system: DMS-273
NCI-H460 = system: NCI-H460
CCRF-CEM = system: CCRF-CEM
SN12C = system: SN12C
XF498 = system: XF498
UACC-257 = system: UACC-257
NCI-H226 = system: NCI-H226
A498 = system: A498
NCI/ADR-RES = system: NCI/ADR-RES
MCF7 = system: MCF7

Measured: GI50

COC1CC(Br)(C#N)C1 (stereo unspecified)
inactive: M19-MEL > 100 µM | HL-60 > 100 µM | SK-MEL-2 > 100 µM | COLO 205 > 100 µM | SR > 100 µM | KM12 > 100 µM | SNB-78 > 100 µM | Malme-3M > 100 µM | NCI-H23 > 100 µM | M14 > 100 µM | DLD-1 > 100 µM | EKVX > 100 µM | HT-29 > 100 µM | SF-295 > 100 µM | KM-20L2 > 100 µM | U-251 > 100 µM | RPMI-8226 > 100 µM | DMS-114 > 100 µM | OVCAR-8 > 100 µM | SK-MEL-5 > 100 µM | SF-539 > 100 µM | 786-0 > 100 µM | SF-268 > 100 µM | RXF 393 > 100 µM | HOP-92 > 100 µM | HCT-116 > 100 µM | OVCAR-3 > 100 µM | SK-OV-3 > 100 µM | HOP-62 > 100 µM | K562 > 100 µM | CAKI-1 > 100 µM | HCC 2998 > 100 µM | TK-10 > 100 µM | A549 > 100 µM | SK-MEL-28 > 100 µM | IGROV-1 > 100 µM | MOLT-4 52 µM | UO-31 > 100 µM | OVCAR-4 > 100 µM | OVCAR-5 > 100 µM | UACC-62 > 100 µM | HOP-18 > 100 µM
> 100 µM: HCT-15

N/C=N/S(=O)(=O)c1ccc(NC(=O)COC(=O)c2cccc3c(=O)c4ccccc4[nH]c23)cc1
inactive: M19-MEL > 100 µM | HL-60 > 100 µM | COLO 205 > 100 µM | SNB-75 > 100 µM | KM12 > 100 µM | Malme-3M > 100 µM | SNB-19 > 100 µM | ACHN > 100 µM | NCI-H23 > 100 µM | M14 67.8 µM | DLD-1 > 100 µM | EKVX > 100 µM | SW-620 > 100 µM | LOX IMVI > 100 µM | HT-29 > 100 µM | NCI-H522 > 100 µM | SF-295 > 100 µM | U-251 > 100 µM | RPMI-8226 > 100 µM | DMS-273 > 100 µM | DMS-114 > 100 µM | OVCAR-8 > 100 µM | SK-MEL-5 > 100 µM | SF-539 > 100 µM | 786-0 > 100 µM | RXF 393 > 100 µM | HCT-116 > 100 µM | NCI-H460 > 100 µM | OVCAR-3 > 100 µM | SK-OV-3 > 100 µM | HOP-62 > 100 µM | CCRF-CEM > 100 µM | SN12C > 100 µM | K562 > 100 µM | XF498 > 100 µM | UACC-257 > 100 µM | TK-10 > 100 µM | A549 > 100 µM | SK-MEL-28 > 100 µM | IGROV-1 > 100 µM | MOLT-4 > 100 µM | NCI-H226 > 100 µM | UO-31 > 100 µM | UACC-62 > 100 µM | HOP-18 > 100 µM
> 100 µM: HCT-15

O=C(O)c1ccc(Nc2c3ccccc3nc3ccccc23)cc1
inactive: M19-MEL 66.7 µM | HL-60 47.9 µM | SK-MEL-2 > 100 µM | COLO 205 > 100 µM | A498 52.6 µM | SNB-75 > 83.9 µM | KM12 > 100 µM | SNB-78 30.8 µM | Malme-3M 43.3 µM | SNB-19 > 86.7 µM | NCI-H23 > 72.3 µM | EKVX > 100 µM | SW-620 59.7 µM | NCI/ADR-RES > 76 µM | LOX IMVI 60.8 µM | HT-29 97.9 µM | NCI-H522 > 75.7 µM | SF-295 45.5 µM | KM-20L2 > 100 µM | U-251 51.6 µM | RPMI-8226 54.8 µM | DMS-273 38.9 µM | DMS-114 > 100 µM | OVCAR-8 64 µM | SK-MEL-5 > 68.1 µM | SF-539 > 78.2 µM | MCF7 71.1 µM | SF-268 67.9 µM | RXF 393 > 100 µM | HOP-92 > 65 µM | HCT-116 45 µM | NCI-H460 22.6 µM | OVCAR-3 > 100 µM | SK-OV-3 > 100 µM | HOP-62 > 67.3 µM | CCRF-CEM 26.9 µM | SN12C 64.7 µM | K562 76.2 µM | CAKI-1 49.9 µM | HCC 2998 > 100 µM | UACC-257 > 100 µM | A549 41.2 µM | SK-MEL-28 > 100 µM | IGROV-1 > 100 µM | MOLT-4 23.1 µM | NCI-H226 31.8 µM | UO-31 54.6 µM | OVCAR-4 > 100 µM | OVCAR-5 > 100 µM | UACC-62 47.4 µM | HOP-18 > 100 µM
64.4 µM: HCT-15
